Test results as given in the supplement of paper PMC8882468.

Test system: HCI-002 (organoid from a triple-negative breast cancer xenograft)
Test: CTG-3D luminescence at 96 h relative to day-0 seeding control (ratio to day 0); higher = more growth / less cytotoxicity; PDxO 3D drug screen, 96 h, CTG-3D normalised to day-0 seeding control.
Conditions: 1 µM; days in culture: 62

In order of rising “CTG-3D luminescence at 96 h” value:
1. O=C(/C=C/c1cccnc1)NCCCCC1CCN(C(=O)c2ccccc2)CC1 [FK866]  0.0154
2. CC(C)n1nc(-c2ccc3oc(N)nc3c2)c2c(N)ncnc21 [sapanisertib]  0.579
3. O=C(c1ccc(F)c(F)c1Nc1ccc(I)cc1F)N1CC(O)([C@@H]2CCCCN2)C1 [cobimetinib]  1.32
4. C=CCn1c(=O)c2cnc(Nc3ccc(N4CCN(C)CC4)cc3)nc2n1-c1cccc(C(C)(C)O)n1 [adavosertib]  1.32
5. C[C@H](NC(=O)CCC(F)(F)F)C(=O)N[C@@H]1C(=O)N(CCO)c2ncccc2-c2ccccc21 [crenigacestat]  2.3
6. COc1cc2c(Oc3ccc4[nH]c(C)cc4c3F)ncnc2cc1OCCCN1CCCC1 [cediranib]  2.52
7. C[C@]12CC[C@@H]3c4ccc(O)cc4C[C@@H](CCCCCCCCC[S+]([O-])CCCC(F)(F)C(F)(F)F)[C@H]3[C@@H]1CC[C@@H]2O (stereo partly specified) [fulvestrant]  2.65
8. Cc1cc(Nc2ncnc3ccc(NC4=NC(C)(C)CO4)cc23)ccc1Oc1ccn2ncnc2c1 [tucatinib]  2.68
9. CS(=O)(=O)c1ccc(C(=O)Nc2ccc(Cl)c(-c3ccccn3)c2)c(Cl)c1 [vismodegib]  3.05

Same assay, conditions: 1 µM; days in culture: 82

In order of rising “CTG-3D luminescence at 96 h” value:
1. O=C(/C=C/c1cccnc1)NCCCCC1CCN(C(=O)c2ccccc2)CC1 [FK866]  0.0553
2. CC(C)n1nc(-c2ccc3oc(N)nc3c2)c2c(N)ncnc21 [sapanisertib]  0.633
3. C=CCn1c(=O)c2cnc(Nc3ccc(N4CCN(C)CC4)cc3)nc2n1-c1cccc(C(C)(C)O)n1 [adavosertib]  1.53
4. O=C(c1ccc(F)c(F)c1Nc1ccc(I)cc1F)N1CC(O)([C@@H]2CCCCN2)C1 [cobimetinib]  1.72
5. CS(=O)(=O)c1ccc(C(=O)Nc2ccc(Cl)c(-c3ccccn3)c2)c(Cl)c1 [vismodegib]  2.51
6. COc1cc2c(Oc3ccc4[nH]c(C)cc4c3F)ncnc2cc1OCCCN1CCCC1 [cediranib]  2.64
7. Cc1cc(Nc2ncnc3ccc(NC4=NC(C)(C)CO4)cc23)ccc1Oc1ccn2ncnc2c1 [tucatinib]  2.75
8. C[C@H](NC(=O)CCC(F)(F)F)C(=O)N[C@@H]1C(=O)N(CCO)c2ncccc2-c2ccccc21 [crenigacestat]  2.76
9. C[C@]12CC[C@@H]3c4ccc(O)cc4C[C@@H](CCCCCCCCC[S+]([O-])CCCC(F)(F)C(F)(F)F)[C@H]3[C@@H]1CC[C@@H]2O (stereo partly specified) [fulvestrant]  2.79

Same assay, conditions: 1 µM; days in culture: 91

In order of falling “CTG-3D luminescence at 96 h” value:
1. COc1cc2c(Oc3ccc4[nH]c(C)cc4c3F)ncnc2cc1OCCCN1CCCC1 [cediranib]  3.86
2. C[C@H](NC(=O)CCC(F)(F)F)C(=O)N[C@@H]1C(=O)N(CCO)c2ncccc2-c2ccccc21 [crenigacestat]  3.36
3. C[C@]12CC[C@@H]3c4ccc(O)cc4C[C@@H](CCCCCCCCC[S+]([O-])CCCC(F)(F)C(F)(F)F)[C@H]3[C@@H]1CC[C@@H]2O (stereo partly specified) [fulvestrant]  2.74
4. Cc1cc(Nc2ncnc3ccc(NC4=NC(C)(C)CO4)cc23)ccc1Oc1ccn2ncnc2c1 [tucatinib]  2.2
5. C=CCn1c(=O)c2cnc(Nc3ccc(N4CCN(C)CC4)cc3)nc2n1-c1cccc(C(C)(C)O)n1 [adavosertib]  1.82
6. CS(=O)(=O)c1ccc(C(=O)Nc2ccc(Cl)c(-c3ccccn3)c2)c(Cl)c1 [vismodegib]  1.77
7. O=C(c1ccc(F)c(F)c1Nc1ccc(I)cc1F)N1CC(O)([C@@H]2CCCCN2)C1 [cobimetinib]  1.55
8. CC(C)n1nc(-c2ccc3oc(N)nc3c2)c2c(N)ncnc21 [sapanisertib]  0.846
9. O=C(/C=C/c1cccnc1)NCCCCC1CCN(C(=O)c2ccccc2)CC1 [FK866]  0.0287

Same assay, conditions: 1 µM; days in culture: 191

In order of rising “CTG-3D luminescence at 96 h” value:
1. O=C(/C=C/c1cccnc1)NCCCCC1CCN(C(=O)c2ccccc2)CC1 [FK866]  0.0595
2. CC(C)n1nc(-c2ccc3oc(N)nc3c2)c2c(N)ncnc21 [sapanisertib]  0.718
3. O=C(c1ccc(F)c(F)c1Nc1ccc(I)cc1F)N1CC(O)([C@@H]2CCCCN2)C1 [cobimetinib]  1.67
4. C=CCn1c(=O)c2cnc(Nc3ccc(N4CCN(C)CC4)cc3)nc2n1-c1cccc(C(C)(C)O)n1 [adavosertib]  1.76
5. C[C@H](NC(=O)CCC(F)(F)F)C(=O)N[C@@H]1C(=O)N(CCO)c2ncccc2-c2ccccc21 [crenigacestat]  2.46
6. COc1cc2c(Oc3ccc4[nH]c(C)cc4c3F)ncnc2cc1OCCCN1CCCC1 [cediranib]  2.47
7. Cc1cc(Nc2ncnc3ccc(NC4=NC(C)(C)CO4)cc23)ccc1Oc1ccn2ncnc2c1 [tucatinib]  3.12
8. C[C@]12CC[C@@H]3c4ccc(O)cc4C[C@@H](CCCCCCCCC[S+]([O-])CCCC(F)(F)C(F)(F)F)[C@H]3[C@@H]1CC[C@@H]2O (stereo partly specified) [fulvestrant]  3.38
9. CS(=O)(=O)c1ccc(C(=O)Nc2ccc(Cl)c(-c3ccccn3)c2)c(Cl)c1 [vismodegib]  3.62
